# Patent US11180474B2 (BRISTOL-MYERS SQUIBB COMPANY, priority 2016, dated 2021)
# Key:
# human TLR8 = target: T1, human TLR8 (Homo sapiens, UniProt Q9NR97); experiment: TLR8 inhibition reporter assay (HEK-Blue cells, SEAP reporter, R848 stimulation); type: cell-based; details: HEK-Blue cells overexpressing human TLR8, R848 15.9 μM
# T1 construct: host or cells: HEK-Blue cells
# T1 sequence (Q9NR97 27-1041): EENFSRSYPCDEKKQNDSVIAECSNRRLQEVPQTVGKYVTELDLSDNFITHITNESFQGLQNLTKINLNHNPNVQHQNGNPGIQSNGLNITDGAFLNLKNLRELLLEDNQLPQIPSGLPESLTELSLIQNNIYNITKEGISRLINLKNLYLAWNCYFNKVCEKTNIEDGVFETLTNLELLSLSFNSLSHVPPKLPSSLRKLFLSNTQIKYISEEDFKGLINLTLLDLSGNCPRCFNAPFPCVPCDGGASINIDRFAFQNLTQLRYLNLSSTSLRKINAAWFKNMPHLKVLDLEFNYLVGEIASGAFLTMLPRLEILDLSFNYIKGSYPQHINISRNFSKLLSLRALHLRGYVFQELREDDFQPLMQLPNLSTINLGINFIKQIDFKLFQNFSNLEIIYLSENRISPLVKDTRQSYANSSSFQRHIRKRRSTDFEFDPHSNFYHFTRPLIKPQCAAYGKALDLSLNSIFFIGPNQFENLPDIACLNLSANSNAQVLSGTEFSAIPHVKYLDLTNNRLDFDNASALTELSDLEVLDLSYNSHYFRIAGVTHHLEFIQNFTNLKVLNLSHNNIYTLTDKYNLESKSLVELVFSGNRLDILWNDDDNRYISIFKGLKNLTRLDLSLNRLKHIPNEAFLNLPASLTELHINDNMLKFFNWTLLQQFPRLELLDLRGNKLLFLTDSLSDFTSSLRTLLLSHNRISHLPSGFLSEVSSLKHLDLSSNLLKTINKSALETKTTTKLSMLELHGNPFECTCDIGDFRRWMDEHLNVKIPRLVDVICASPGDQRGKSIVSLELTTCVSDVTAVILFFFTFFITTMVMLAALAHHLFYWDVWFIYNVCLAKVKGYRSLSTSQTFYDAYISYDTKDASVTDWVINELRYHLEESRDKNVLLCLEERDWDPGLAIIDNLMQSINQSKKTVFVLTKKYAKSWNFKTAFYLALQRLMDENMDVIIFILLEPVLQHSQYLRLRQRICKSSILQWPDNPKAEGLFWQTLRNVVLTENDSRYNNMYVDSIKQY
# Description: TLR7/8/9 Inhibition Reporter Assays
# Briefly, cells are seeded into Greiner 384 well plates (15000 cells per well for TLR7, 20,000 for TLR8 and 25,000 for TLR9) and then treated with test compounds in DMSO to yield a final dose response concentration range of 0.05 nM-50 μM. […] After a 22 hour incubation at 37° C., 5% CO2, SEAP levels are determined with the addition of HEK-Blue™ Detection reagent (Invivogen), a cell culture medium that allows for detection of SEAP, according to manufacturer's specifications. The percent inhibition is determined as the % reduction in the HEK-Blue signal present in wells treated with agonist plus DMSO alone compared to wells treated with a known inhibitor.
# human TLR7 = target: T2, human TLR7 (Homo sapiens, UniProt Q9NYK1); experiment: TLR7 inhibition reporter assay (HEK-Blue cells, SEAP reporter, gardiquimod stimulation); type: cell-based; details: HEK-Blue cells overexpressing human TLR7, gardiquimod 7.5 μM
# T2 construct: host or cells: HEK-Blue cells
# T2 sequence (Q9NYK1 27-1049): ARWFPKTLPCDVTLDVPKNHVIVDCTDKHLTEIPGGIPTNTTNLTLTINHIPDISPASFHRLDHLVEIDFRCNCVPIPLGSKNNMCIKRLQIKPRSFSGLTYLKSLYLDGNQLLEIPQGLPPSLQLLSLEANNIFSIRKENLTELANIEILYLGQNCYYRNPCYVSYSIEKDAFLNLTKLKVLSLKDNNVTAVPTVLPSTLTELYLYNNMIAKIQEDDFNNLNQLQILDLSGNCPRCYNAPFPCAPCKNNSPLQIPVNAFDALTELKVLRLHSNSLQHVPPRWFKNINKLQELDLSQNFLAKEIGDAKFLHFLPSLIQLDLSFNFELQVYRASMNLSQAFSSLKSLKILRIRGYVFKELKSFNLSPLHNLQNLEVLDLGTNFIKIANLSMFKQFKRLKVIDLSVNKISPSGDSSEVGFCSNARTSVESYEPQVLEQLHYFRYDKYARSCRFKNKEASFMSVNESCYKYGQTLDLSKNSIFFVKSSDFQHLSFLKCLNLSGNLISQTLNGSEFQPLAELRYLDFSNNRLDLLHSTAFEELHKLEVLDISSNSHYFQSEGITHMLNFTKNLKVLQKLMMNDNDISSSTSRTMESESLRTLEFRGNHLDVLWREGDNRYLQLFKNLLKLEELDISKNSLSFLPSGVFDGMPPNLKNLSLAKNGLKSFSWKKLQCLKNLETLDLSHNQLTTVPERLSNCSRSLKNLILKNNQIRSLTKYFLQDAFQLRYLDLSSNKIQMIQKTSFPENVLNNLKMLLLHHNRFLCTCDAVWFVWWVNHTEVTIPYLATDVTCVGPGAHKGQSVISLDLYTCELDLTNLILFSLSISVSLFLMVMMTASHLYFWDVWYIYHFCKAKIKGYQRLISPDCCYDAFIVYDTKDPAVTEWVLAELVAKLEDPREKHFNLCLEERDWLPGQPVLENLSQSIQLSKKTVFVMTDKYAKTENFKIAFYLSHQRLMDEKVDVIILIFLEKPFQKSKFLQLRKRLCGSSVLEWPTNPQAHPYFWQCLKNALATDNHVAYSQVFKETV
# Procedure, shortened: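 22 h, 37° C, 5% CO2 incubation; compounds 0.05 nM-50 μM final; TLR7 cells 15000/well, TLR8 20,000/well. Readout: SEAP via HEK-Blue Detection medium. % inhibition = signal reduction versus agonist + DMSO wells, referenced to known inhibitor.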
IC50 (human TLR8),IC50 (human TLR7),SMILES
101 nM,898 nM,"CCc1c(-c2ccc(OC)c(OC)c2)[nH]c2ccc(C3CCN(C4CCN(Cc5ccsc5)CC4)CC3)cc12 [Example 142, 2-(3,4-dimethoxyphenyl)-3-ethyl-5-(1′-(thiophen-3-ylmethyl)-[1,4′-bipiperidin]-4-yl)-1H-indole]"
33 nM,590 nM,"CCc1c(-c2ccc(OC)c(OC)c2)[nH]c2ccc(C3CCN(C4CCN(C5CCCC5)CC4)CC3)cc12 [Example 152, 5-(1′-cyclopentyl-[1,4′-bipiperidin]-4-yl)-2-(3,4-dimethoxyphenyl)-3-ethyl-1H-indole]"
1360 nM,7980 nM,"CCc1c(-c2ccc(OC)c(OC)c2)[nH]c2ccc(C3CCN(C4CCN(C)CC4)CC3)cc12 [Example 150, 2-(3,4-dimethoxyphenyl)-3-ethyl-5-(1′-methyl-[1,4′-bipiperidin]-4-yl)-1H-indole]"
201 nM,606 nM,"COc1ccc(-c2[nH]c3ccc(C4CCN(C5CCN(C(C)C)CC5)CC4)cc3c2C)cc1OC [Example 10, 2-(3,4-dimethoxyphenyl)-5-(1′-isopropyl-[1,4′-bipiperidin]-4-yl)-3-methyl-1H-indole]"
792 nM,4170 nM,"CCc1c(-c2ccc(OC)c(OC)c2)[nH]c2ccc(C3CCN(C4CCN(Cc5csnn5)CC4)CC3)cc12 [Example 130, 4-((4-(2-(3,4-dimethoxyphenyl)-3-ethyl-1H-indol-5-yl)-[1,4′-bipiperidin]-1′-yl)methyl)-1,2,3-thiadiazole]"
73 nM,473 nM,"CCc1c(-c2ccc(OC)c(OC)c2)[nH]c2ccc(C3CCN(C4CCN(Cc5cc(C)n(C)n5)CC4)CC3)cc12 [Example 144, 2-(3,4-dimethoxyphenyl)-5-(1′-((1,5-dimethyl-1H-pyrazol-3-yl)methyl)-[1,4′-bipiperidin]-4-yl)-3-ethyl-1H-indole]"
13 nM,155 nM,"COc1ccc(-c2[nH]c3ccc(C4CCN(C5CCN(C6CCCC6)CC5)CC4)cc3c2C(C)C)cc1OC [Example 202, 5-(1′-cyclopentyl-[1,4′-bipiperidin]-4-yl)-2-(3,4-dimethoxyphenyl)-3-isopropyl-1H-indole]"
403 nM,507 nM,"CCc1c(-c2ccc(OC)c(OC)c2)[nH]c2ccc(C3CCN(C4CCN(C(C)C)CC4)CC3)cc12 [Example 151, 2-(3,4-dimethoxyphenyl)-3-ethyl-5-(1′-isopropyl-[1,4′-bipiperidin]-4-yl)-1H-indole]"
18 nM,31 nM,"COc1ccc(-c2[nH]c3ccc(C4CCN(C(=O)CNC5(CO)CCCC5)CC4)cc3c2C(C)C)cc1OC [Example 213, 1-(4-(2-(3,4-dimethoxyphenyl)-3-isopropyl-1H-indol-5-yl)piperidin-1-yl)-2-((1-(hydroxymethyl)cyclopentyl)amino)ethan-1-one]"
379 nM,409 nM,"COc1ccc(-c2[nH]c3ccc(C4CCN(C(=O)CNC56CC7CC(CC(C7)C5)C6)CC4)cc3c2C(C)C)cc1OC [Example 217, 2-(((3s,5s,7s)-adamantan-1-yl)amino)-1-(4-(2-(3,4-dimethoxyphenyl)-3-isopropyl-1H-indol-5-yl)piperidin-1-yl)ethan-1-one]"
27 nM,101 nM,"COc1ccc(-c2[nH]c3ccc(C4CCN(C5CCN(C)CC5)CC4)cc3c2C(C)C)cc1OC [Example 200, 2-(3,4-dimethoxyphenyl)-3-isopropyl-5-(1′-methyl-[1,4′-bipiperidin]-4-yl)-1H-indole]"

# The remaining lines, values behind:
SMILES,IC50 (human TLR8),IC50 (human TLR7)
"CCc1c(-c2ccc(OC)c(OC)c2)[nH]c2ccc(C3CCN(C(=O)CN4CCCC(C(=O)N(CC)CC)C4)CC3)cc12 (single isomer, unassigned) [Example 178, 1-(2-(4-(2-(3,4-dimethoxyphenyl)-3-ethyl-1H-indol-5-yl)piperidin-1-yl)-2-oxoethyl)-N,N-diethylpiperidine-3-carboxamide]",131 nM,480 nM
"CNCCN1CCC(c2cc3c(C(C)C)c(-c4ccc(OC)c(OC)c4)[nH]c3cc2F)CC1 [Example 208, 2-(4-(2-(3,4-dimethoxyphenyl)-6-fluoro-3-isopropyl-1H-indol-5-yl)piperidin-1-yl)-N-methylethan-1-amine]",35 nM,9 nM
"CCc1c(-c2ccc(OC)c(OC)c2)[nH]c2ccc(C3CCN(C(=O)C4(C)CCNCC4)CC3)cc12 [Example 187, (4-(2-(3,4-dimethoxyphenyl)-3-ethyl-1H-indol-5-yl)piperidin-1-yl)(4-methylpiperidin-4-yl)methanone]",162 nM,167 nM
"CNCCN1CCC(c2ccc3c(c2)c(C)c(-c2ccc(OC)c(OC)c2)n3C)CC1 [Example 114, 2-(4-(2-(3,4-dimethoxyphenyl)-1,3-dimethyl-1H-indol-5-yl)piperidin-1-yl)-N-methylethan-1-amine]",958 nM,5260 nM
"COc1ccc(-c2[nH]c3ccc(C4CCN(C(=O)CNC56CC7CC(CC(O)(C7)C5)C6)CC4)cc3c2C(C)C)cc1OC [Example 218, 1-(4-(2-(3,4-dimethoxyphenyl)-3-isopropyl-1H-indol-5-yl)piperidin-1-yl)-2-(((1r,3s,5R,7S)-3-hydroxyadamantan-1-yl)amino)ethan-1-one]",54 nM,44 nM
"CCc1c(-c2ccc(OC)c(OC)c2)[nH]c2ccc(C3CCN(C4CCN(Cc5ccc(-c6ccccc6)o5)CC4)CC3)cc12 [Example 143, 2-(3,4-dimethoxyphenyl)-3-ethyl-5-(1′-((5-phenylfuran-2-yl)methyl)-[1,4′-bipiperidin]-4-yl)-1H-indole]",706 nM,1260 nM
"COc1ccc(-c2[nH]c3cc(C)c(C4CCNCC4)cc3c2C(C)C)cc1OC [Example 205, 2-(3,4-dimethoxyphenyl)-3-isopropyl-6-methyl-5-(piperidin-4-yl)-1H-indole]",6870 nM,2370 nM
"COc1ccc(-c2[nH]c3ccc(C4CCN(C(=O)CNCC#N)CC4)cc3c2C(C)C)cc1OC [Example 214, 2-((2-(4-(2-(3,4-dimethoxyphenyl)-3-isopropyl-1H-indol-5-yl)piperidin-1-yl)-2-oxoethyl)amino) acetonitrile]",256 nM,21 nM
